Measured values: patent US20220339257A1, “METHODS TO INCREASE THE SENSITIVITY AND REVERSING THE RESISTANCE TO DRUGS” (Biomarker Strategies, LLC, priority 2019, published 2022)

Experiments:
Assay type in all cases: cell-based
A-253 = assay: WST-8 cell viability assay; conditions: in combination with spermidine, 72 hours
Experimental: (§1) Day 1: cells were harvested cells from flask (4 mL accutase for T175 for 3-5 minutes), and spin down for 5 mins at 1200 rpm. The supernatant was poured off, and the pellet gently resuspended in 1 mL media. Countess counts were performed, and the cells were diluted in media (10% FBS). With multi-channel pipette, 2500 cells were seeded in 100 uL of media (10% FBS) in each well of 96 well plate. The cells were let to adhere and grow for 24 hours. Day 2: serial drug dilutions of MTAs+/−EMs at 5× of concentrations (as done above) were performed in media (10% FBS). 20 uL of media form each well of the 96 well plate (80 uL media left in wells) was removed, and 20 uL of appropriate 5× drug dilutions was added to each respective well (for a 1× conc). The cells were incubated with drug for 72 hours in 37C incubator. Day 5: 10 uL of WST-8 reagent was added to each well of the 96 well plate and mixed gently. the plates were incubated up to 4 hours at 37C in dark, and absorbance readings were taken at […] and 600 nm wavelengths at 1, 2, 3 and 4h, until control absorbance levels were 1.5-2.0).
(§2) WST-8 Assay: MTA and EM effects on cell viability were measured by Cell Counting Kit8 (WST-8) colorimetric assay using water-soluble tetrazolium salt WST-8 reagent (Vita Scientific Cat. #DBOC00128). For the assay, cells were seeded in 96-well plates at 2,500 cells per well, in 100 μL of 10% FBS-containing media. After 24 hours, a 1 nM to 10 μM range of MTA and/or 1 ng/mL to 1 mg/mL range of EM doses was added and incubated for 72 hours. After treatment, a 10% volume of WST-8 reagent was added to each well and cells were incubated at 37° C. for up to 4 hours. Solution absorbance was measured at wavelengths of 450 nm and 600 nm at 1-, 2-, 3-, and 4-hour's incubation. Percentage viability of drug-treated cells was calculated relative to untreated control cells. Results were confirmed by three independent experiments.
(§3) For studying the effects of various molecularly targeted agents (MTAs) and enhancer molecules (EMs) alone as well as in combination: HCC827, PC-9, A427, Calu-6, H2228, H358, H1299, H460, H292, H1838, H2170, and H226 (non-small cell lung cancer; NSCLC); and SK-MES-1 […], CAL27, OE21, KYSE-70, A-253, BICR-16, PE/CA-PJ15 and Ca9-22 (head and neck squamous cell carcinoma; HNSCC); SK-MEL-2, SK-MEL-28, RPMI-7951 and A7 (melanoma); HTB-38 and HCT116 (colorectal cancer; CRC); BxPC-3 and HPAF-II (pancreatic cancer); HEPG2 (hepatocellular carcinoma; HCC); A498 (renal cell carcinoma; RCC) cells were used. Other cell lines, including those from other cancer types, or cells collected from more complex sample types such as xenografts and clinical samples can be used. Ultimately, these combinations can be utilized in various clinical and pre-clinical samples and studies. Using the WST-8 cell viability assay, a MTA+EM-induced anti-cancer/anti-growth activity in multiple cell lines was discovered (FIGS. 8-15). Other viability assays, for example, MTT, HoPI staining, dye exclusion (e.g. trypan blue), can be used readily. […] The cut-off value for classifying a “strong anti-cancer/anti-growth enhancement” was a response resulting in >70% reduction in cell survival compared to untreated control cells (100%), while showing greater reduction compared to both MTA and EM alone.

Ca9-22 = assay: WST-8 cell viability assay; conditions: in combination with osimertinib, 72 hours
Experimental: as §1, §2, §3

Calu-6 = assay: WST-8 cell viability assay
Experimental: as §1, §2, §3

H2170 = assay: WST-8 cell viability assay; conditions: in combination with GSK-458, 72 hours
Experimental: as §1, §2, §3

HPAF-II = assay: WST-8 cell viability assay
Experimental: as §1, §2, §3

Ca9-22 cells = assay: Western blot of protein biomarkers; conditions: osimertinib (100 nM)+IL-17 (10 ng/mL)
Experimental: (§4) MTA and EM effects on protein biomarker expression were measured by western blotting. For the assay cell lines (Ca9-22, PE/CA-PJ15, HTB-38, HPAF-II, CAL27, BICR-16, A-253, Calu-6, PC-9, H1838, RPMI-7951 and A7) were cultured and treated with doses of MTAs alone, EMs alone and in combination and then lysed for protein analysis. This method can readily be conducted under adherent or suspension conditions, manually or on automated instruments, such as SnapPath. A total of 0.3×10^6 cells per well were seeded in 6 well plates with 10% FBS-containing media and incubated for 24 hours. Cells were then treated with MTA and/or EM concentrations for 24 hours. For total protein extraction, briefly, each sample media was collected, and wells were washed with HMS, and the wash was combined with its respective media collection. Cells were then detached using Accutase solution and again collected in its respective sample media and another HMS well wash and collection was performed. All cell solutions were centrifuged, washed with ice-cold PBS, and centrifuged again. Cell pellets were lysed in 250 μL of ice-cold 1× lysis buffer with protease and phosphatase inhibitor cocktails and incubated for 10 minutes on ice. Lysates were clarified with a centrifugation (14,000 rpm) for 10 minutes at 4° C. Cell lysates were quantified using Bio-Rad DC Protein Assay (Bio-Rad Cat. #5000116).
(§5) For all western blots, an equal amount of protein (3-5 μg) was loaded into SDS-polyacrylamide gels (Mini-Protean TGX Precast Gel; Bio-Rad, e.g. 7.5%, Cat. #4561024; 10%, Cat. #4561035; 12%, Cat. #4561045; or 4-15%, Cat. #4561085). Proteins were separated at 215V for at least 30 minutes in 1× Tris/Glycine/SDS buffer (Bio-Rad Cat. #1610772) and transferred to PVDF membranes using a Trans-Blot Turbo (Bio-Rad Cat. #1704155) for 7 minutes in transfer buffer (Trans-Blot Turbo Transfer Kit, Bio-Rad Cat. #1704273). Blots were blocked at room temperature for 1 hour with 5% non-fat dry milk in tris-buffered saline with Tween 20 (TBST; 15 mM Tris-HCl, pH 7.5, 200mMNaCl and 0.1% Tween 20). Membranes were incubated with primary antibodies at 4° C. overnight and at room temperature for 1 hour the next day; all primary antibodies were diluted following manufacturer's specifications in TBST with either 5% BSA or 5% non-fat dry milk. Membranes were washed in TBST for 5 minutes, three times, and incubated with HRP-conjugated secondary antibodies diluted 1:5000 in TBST with 5% non-fat dry milk at room temperature for 1 hour (anti-rabbit IgG, Bio-Rad Cat. #1706515; or anti-mouse IgG, Bio-Rad Cat. #1706516). Membranes were then washed in TBST for 10 minutes, three times, and target proteins were identified using Clarity Western ECL Substrate (Bio-Rad Cat. #1705061) on autoradiography film (GenHunter Cat. #B581, Nashville, Tenn., USA). Other assay types, such as Luminex multiplexed immunoassays, ICC, IHC, flow cytometry, etc. can be used readily.

HPAF-II cells = assay: Western blot of protein biomarkers; conditions: trametinib (100 nM)+IL-17 (10 ng/mL), 24 hours
Experimental: as §4, §5

BICR-16 = assay: WST-8 cell viability assay; conditions: in combination with GSK-458, 72 hours
Experimental: as §1, §2, §3

BxPC-3 = assay: WST-8 cell viability assay; conditions: in combination with GSK-458, 72 hours
Experimental: as §1, §2, §3

CAL27 = assay: WST-8 cell viability assay; conditions: in combination with GSK-795, 72 hours
Experimental: as §1, §2, §3

HTB-38 = assay: WST-8 cell viability assay
Experimental: as §1, §2, §3

OE21 = assay: WST-8 cell viability assay; conditions: in combination with trametinib, 72 hours
Experimental: as §1, §2, §3

CAL27 cells = assay: Western blot of protein biomarkers; conditions: GSK-795 (10 nM)+IFN-γ (50 ng/mL)
Experimental: as §4, §5

[1] = tested on: panel of cell lines that included NSCLC, HNSCC, melanoma, and CRC; assay: WST8 in vitro sensitivity to MTAs with and without EM
Experimental: as §1
We used a panel of cell lines that included NSCLC, HNSCC, melanoma, and CRC. These cell lines are a good model system harboring similar (epi)genetic changes found in patients' tumors. We used the WST8 assay to determine the in vitro sensitivity to various MTAs with and without EM1.

Calu-6 cells = assay: Western blot of protein biomarkers; conditions: GSK-458 (100 nM)+TNF-β (50 ng/mL), 24 hours
Experimental: as §4, §5

[2] = in combination with trametinib, 72 hours
[3] = 24 hours, compared to either MTA or EM alone
[4] = compared to either therapy alone
[5] = in combination with GSK-458, 72 hours

Molecule: interleukin 17 [EM5]
- anti-cancer/growth enhancement (WST-8 cell viability) (A-253): moderate-to-strong anti-cancer/growth enhancement
- anti-cancer/growth enhancement (WST-8 cell viability) (Ca9-22): moderate-to-strong anti-cancer/growth enhancement
- anti-cancer/growth enhancement (WST-8 cell viability) (Calu-6; [2]): moderate-to-strong anti-cancer/growth enhancement
- anti-cancer/growth enhancement (WST-8 cell viability) (H2170): moderate-to-strong anti-cancer/growth enhancement
- anti-cancer/growth enhancement (WST-8 cell viability) (HPAF-II; [2]): moderate-to-strong anti-cancer/growth enhancement
- p-AKT (Ser473) expression (Ca9-22 cells; [3]): strong reduction in p-AKT (Ser473) expression
- Ki67 expression (Ca9-22 cells; compared to both MTA and EM alone): enhanced reduction in Ki67 expression
- PARP cleavage (HPAF-II cells; compared to MTA and EM alone): very strong PARP cleavage
- p-AKT (Ser473) expression (HPAF-II cells; compared to either MTA or EM alone): strong reduction in p-AKT (Ser473) expression
- Ki67 degradation and/or fragmentation pattern (HPAF-II cells; [4]): marked increase in the distinct degradation and/or fragmentation pattern of Ki67

Molecule: interferon-gamma [EM1, enhancer molecule, cytokine purchased from Sigma]
- anti-cancer/growth enhancement (WST-8 cell viability) (BICR-16): moderate-to-strong anti-cancer/growth enhancement
- anti-cancer/growth enhancement (WST-8 cell viability) (BxPC-3): moderate-to-strong anti-cancer/growth enhancement
- anti-cancer/growth enhancement (WST-8 cell viability) (CAL27): moderate-to-strong anti-cancer/growth enhancement
- anti-cancer/growth enhancement (WST-8 cell viability) (Calu-6; in combination with GSK-795, 72 hours): moderate-to-strong anti-cancer/growth enhancement
- anti-cancer/growth enhancement (WST-8 cell viability) (HPAF-II; [5]): moderate-to-strong anti-cancer/growth enhancement
- anti-cancer/growth enhancement (WST-8 cell viability) (HPAF-II; [2]): moderate-to-strong anti-cancer/growth enhancement
- anti-cancer/growth enhancement (WST-8 cell viability) (HTB-38; [5]): moderate-to-strong anti-cancer/growth enhancement
- anti-cancer/growth enhancement (WST-8 cell viability) (HTB-38; in combination with dabrafenib, 72 hours): moderate-to-strong anti-cancer/growth enhancement
- anti-cancer/growth enhancement (WST-8 cell viability) (HTB-38; [2]): moderate-to-strong anti-cancer/growth enhancement
- anti-cancer/growth enhancement (WST-8 cell viability) (OE21): moderate-to-strong anti-cancer/growth enhancement
- p-AKT (Ser473) expression (CAL27 cells; [3]): strong reduction in p-AKT (Ser473) expression
- LC3II over LC3I expression (CAL27 cells; 24 hours, compared to either alone): marked increase in LC3II over LC3I expression
- p62 expression (CAL27 cells; [4]): reduced p62 expression
- response enhancement (in vitro sensitivity to various MTAs with and without EM, WST8) [1]: no, minimal and strong response enhancement

B1: tumor necrosis factor-beta (protein, UniProt P01374 35-205, looked up)
Lymphotoxin-alpha: LPGVGLTPSAAQTARQHPKMHLAHSTLKPAAHLIGDPSKQNSLLWRANTDRAFLQDGFSLSNNSLLVPTSGIYFVYSQVVFSGKAYSPKATSSPLYLAHEVQLFSSQYPFHVPLLSSQKMVYPGLQEPWLHSMYHGAAFQLTQGDQLSTHTDGIPHLVLSPSTVFFGAFAL
notes: enhancer molecule, cytokine purchased from Sigma
- anti-cancer/growth enhancement (WST-8 cell viability) (Ca9-22): anti-cancer/growth enhancement
- PARP cleavage (Calu-6 cells; compared to MTA and EM alone): very strong PARP cleavage
- Ki67 degradation and/or fragmentation pattern (Calu-6 cells; [4]): marked increase in the distinct degradation and/or fragmentation pattern of Ki67
